Among the data in article PMC6272208, “2-Keto-D-Gluconate-Yielding Membrane-Bound D-Glucose Dehydrogenase from Arthrobacter globiformis C224: Purification and Characterization” (Molecules, 2015) are Km and Ki values, retold here.

One may read the Km as the substrate concentration at which the rate is half of its maximum.

Type in all cases: biochemical
The test system of assay [1] is T1, membrane-bound D-glucose dehydrogenase (GlcDH) from Arthrobacter globiformis C224.
T1 construct: gene gcd; native, purified from membrane fraction of C224 (Triton X-114, precipitations, hydroxylapatite); 87 kDa, single SDS-PAGE band, no subunits
Nature of the assay: single-substrate kinetics, Lineweaver-Burk. The settings on record: pH 5.0 (Table 5); general assay uses ferricyanide as electron acceptor in McIlvaine buffer, stated there as pH 3.0. From the text:
single-substrate kinetics, Lineweaver-Burk on membrane-bound D-glucose dehydrogenase (GlcDH) from Arthrobacter globiformis […]

Assay [2] has the same test system. Nature of the assay: dual-substrate initial velocity kinetics (ping-pong). The settings on record: artificial electron acceptor; glucose as co-substrate (5-80 mM), PMS 50-200 µM.
The target of assay [3] is T1, membrane-bound D-glucose dehydrogenase (GlcDH) from Arthrobacter globiformis C224. As to the kind of experiment: steady-state product inhibition kinetics, Lineweaver-Burk. The following applies: competitive towards PMS; PMS varied at 33 mM glucose, gluconic acid 0-200 mM; read-out: inhibition constant.

Each structure is given as a SMILES string. Where a name gives a salt, the structure may show the parent alone.

As for `OC[C@H]1OC(O)[C@H](O)[C@@H](O)[C@H]1O` (stereo partly drawn) [D-galactose], the Km in assay [1] is 460 ± 20 µM.

Consider `OC[C@H]1OC(O)[C@H](O)[C@@H](O)[C@@H]1O` (stereo partly drawn) [D-glucose], for which the Km in assay [1] worked out at 210 ± 10 µM.

Consider `OC1OC[C@@H](O)[C@H](O)[C@H]1O` (stereo partly drawn) [D-xylose], for which, in assay [1], the Km was 340 ± 20 µM.

Take `C[n+]1c2ccccc2nc2ccccc21` [N-methylphenazonium methyl sulfate]: the Michaelis constant (Km) in assay [2] was 400 µM.

Consider `O=C(O)[C@H](O)[C@@H](O)[C@H](O)[C@H](O)CO` [gluconic acid], for which, in assay [3], the Ki is 11.4 mM.

Consider `OC[C@H]1O[C@H](O[C@H]2[C@H](O)[C@@H](O)C(O)O[C@@H]2CO)[C@H](O)[C@@H](O)[C@@H]1O` (stereo partly drawn) [maltose], for which the Km in assay [1] came out at 590 ± 30 µM.
